Tested on: neurons in the mid-posterior insular cortex (mpIC)
Assay: Arc expression in the mpIC of Arc-dVenus reporter mice after oral consumption
Format: in vivo
Settings: for response of neurons in the mpIC (Arc expression) to oral consumption: Arc-dVenus reporter mice, compared with water
Method: The expression of Arc was evaluated by immunohistochemical staining for GFP (green) to amplify the signal of dVenus and co-localized with DAPI nuclear staining (blue). Dotted lines are based on Allen Brain Atlas and depict the cytoarchitectonic layers of the insular cortex (granular insula; GI, dysgranular insula; DI, agranular insula; AI) and the claustrum (CI). Scale bar, 200 μm. (1B) A graph showing manual quantification of Arc-positive cells that were identified by GFP and DAPI double-positive staining per region of interest (ROI=[…]) in mice that were exposed to water or OVA. Student's t-test; mean±s.e.m; n=3, 4; **P<0.01. (1C) Maps showing the location of the insular cortex in mice (upper left). Arc-expressing neurons following oral consumption of OVA were found in the mid-posterior region of the insula (upper right) that comprises both gustatory and visceral cortices (lower panel). (1D) A location map and micrographs showing validation of the injection site in the mpIC. Representative image describing the expression of the inhibiting form of designer receptors exclusively activated by designer drugs (DREADDs; Gi) in neurons following stereotactic injection of a viral vector (AAV8-hSyn-hM4Di (Gi)-mCherry), in the GI and DI layers of the mpIC ((0.14-0.18) mm Anterior-Posterior (AP); (3.6-3.8) mm Medial-Lateral (ML); (2.5-2.6) mm Dorsal-Ventral (DV)).
FIGS. 5A-5F include fluorescent micrographs, graphs, and location maps, showing representation of aversive information in the mpIC. […] The expression of Arc was evaluated as described in FIG. 1A. Dotted lines are based on Allen Brain Atlas, and depict the cytoarchitectonic layers of the insular cortex (granular insula; GI, dysgranular insula; DI, agranular insula; AI) and the claustrum (CI). Scale bar, 200 μm. (5B) Manual quantification of Arc-positive cells in the region of interest (ROI=[…]) was performed as described in FIG. 1A in mice that consumed water or denatonium benzoate. Student's t-test; mean±s.e.m; n=3, 5; *P<0.05. (5C) The images show Arc expression in the mpIC of Arc-dVenus reporter mice that were exposed to OVA (left panel) or denatonium benzoate (right panel). The numbers (1-6) represent the layers of the cerebral cortex. Scale bar, 200 μm. (5D) Graphs represent the difference in total Arc expression (left) and the distribution of Arc-positive cells in the 3 cytoarchitectonic layers of the insular cortex (GI, DI, and AI) following exposure of mice to OVA or denatonium benzoate. […] (5F) Graphs depict the total difference in Arc-positive cells in the ⅔ layer of the cerebral cortex (left) of the mpIC and expression of Arc in this layer divided by the insular layers (GI, DI, and AI). Student's t-test; mean±s.e.m; n=3, 5; *P<0.05, **P<0.01.
Thus far, the inventors exposed the mice only to positive appetitive signals, however, whether the mpIC also responds to aversive information that can inform about the presence of pathogens, left unclear. To answer this question the inventors used the Arc reporter mice, except this time they were exposed to the bitter substance denatonium benzoate.

| Molecule | response of neurons in the mpIC (Arc expression) to oral consumption | Arc-positive cells in the granular layer (GI) of the mpIC (denatonium benzoate (bitter) compared to OVA) | total number of activated neurons in the mpIC (denatonium benzoate compared to OVA) | Arc expression in the AI layer of the mpIC (OVA-consuming mice compared to mice exposed to denatonium benzoate) |
| --- | --- | --- | --- | --- |
| CC[N+](CC)(CC(=O)Nc1c(C)cccc1C)Cc1ccccc1 [denatonium benzoate] | neurons in the mpIC also respond | less Arc-positive cells | no significant difference | – |
| ovalbumin (protein, UniProt P01012 2-386, looked up, orally consumed novel innocuous food antigen) Ovalbumin: GSIGAASMEFCFDVFKELKVHHANENIFYCPIAIMSALAMVYLGAKDSTRTQINKVVRFDKLPGFGDSIEAQCGTSVNVHSSLRDILNQITKPNDVYSFSLASRLYAEERYPILPEYLQCVKELYRGGLEPINFQTAADQARELINSWVESQTNGIIRNVLQPSSVDSQTAMVLVNAIVFKGLWEKAFKDEDTQAMPFRVTEQESKPVQMMYQIGLFRVASMASEKMKILELPFASGTMSMLVLLPDEVSGLEQLESIINFEKLTEWTSSNVMEERKIKVYLPRMKMEEKYNLTSVLMAMGITDVFSSSANLSGISSAESLKISQAVHAAHAEINEAGREVVGSAEAGVDAASVSEEFRADHPFLFCIKHIATNAVLFFGRCVSP | respond to oral consumption of OVA | – | – | lower expression |

Source: patent US20200376287A1, “METHODS FOR INCREASING TGF-B SIGNALING” (TECHNION RESEARCH & DEVELOPMENT FOUNDATION LIMITED, priority 2019, published 2020)
